These results are taken from US20240300932A1, “N-PHENYLIMINE DERIVATIVE AND PREPARATION METHOD AND USE THEREOF” (Guizhou University, priority 2023, published 2024).

Assay in all cases: Post-emergence herbicidal activity test (stem and leaf spray, pot culture)
What all share (assay type): in vivo
Holding throughout (conditions): 3 weeks after spraying

One assay concerns Abutilon theophrasti. As to the method:
(§1) The weeds were cultivated in a 180 mm×140 mm plastic nutrient pot by a pot-culture method, placed in an enamel tray, and the plastic nutrient pots were filled with surface soil (⅘ of a depth) collected from a farmland and air-dried and sieved, and a soil humidity was controlled at 20% in the initial stage. Weed seeds with plump and uniform grains were selected, soaked in warm water at 25° C. for 6 h, and germinated in a biochemical incubator (dark) at 28° C. The freshly exposed weed seeds were evenly placed on the soil surface, and then covered with 0.5 cm to 1 cm of soil according to the size of the seeds. The weeds are cultivated in a controlled sunlight greenhouse at 20° C. to 30° C., under natural light, and a relative humidity of 57% to 72%. The soil was loam, including 1.63% of organic matters, with a pH value of 7, 84.3 mg/kg of alkaline nitrogen, 38.5 mg/kg of available phosphorus, and 82.1 mg/kg of available potassium.
(§2) Each treatment was repeated 2 times, each treatment included 12 pots, and 20 weed seeds were sown in each pot. Pesticide was applied in the test for 1 time in total. When the weeds grew to 1.5- to 2-leaf stage, thinning was conducted, with 10 weeds in each pot, and 30 weeds were kept in each treatment.
(§3) The cultivated weeds were placed on trays with an area of 0.1 m^2, and stems and leaves were sprayed with a sprayer. After applying a pesticide, the pesticide applied weeds were moved into a greenhouse for routine cultivation.
(§4) 2 weeks after sowing, the test plants were treated at the 2- to 3-leaf stage: the compounds of the present disclosure for testing were dissolved in acetone separately, and added with Tween 80, an emulsifiable oil of 1.5 liters/ha methyl oleate was added as a synergist, and an obtained mixture was diluted with certain water to a certain concentration solution. The solution was sprayed onto the plants using a spray tower. After spraying, the weeds were cultivated in the greenhouse for 3 weeks, and the experimental effects on the weeds were counted. The effective concentrations of the compounds were 10 g/mu, 5 g/mu, and 2.5 g/mu, the experiment was repeated three times, and an average result was taken.
(§5) The activity level criteria for plant destruction (i.e. growth control rate) are as follows: • Grade 5: the growth control rate is greater than or equal to 85%; • Grade 4: the growth control rate is greater than or equal to 60% and less than 85%; • Grade 3: the growth control rate is greater than or equal to 40% and less than 60%; • Grade 2: the growth control rate is greater than or equal to 20% and less than 40%; • Grade 1: the growth control rate is greater than or equal to 5% and less than 20%; and • Grade 0: the growth control rate is less than 5%.
(§6) The growth control rate is a fresh weight control rate.

Another assay has as its system Amaranthus retroflexus. The protocol: as §1, §2, §3, §4, §5, §6
The next assay relates to Echinochloa crusgalli. As to the method: as §1, §2, §3, §4, §5, §6
Another assay concerns Portulaca oleracea. The protocol:
as §1, §2, §3, §4, §5, §6

In a further assay the test system is Setaria viridis. The protocol:
as §1, §2, §3, §4, §5, §6

For another assay, the system named is Trifoliumre pensL. As to the method:
(1) Post-Emergence Stem and Leaf Spray Treatment: The weeds were cultivated in a 180 mm×140 mm plastic nutrient pot by a pot-culture method, placed in an enamel tray, and the plastic nutrient pots were filled with surface soil (⅘ of a depth) collected from a farmland and air-dried and sieved, and a soil humidity was controlled at 20% in the initial stage. Weed seeds with plump and uniform grains were selected, soaked in warm water at 25° C. for 6 h, and germinated in a biochemical incubator (dark) at 28° C. The freshly exposed weed seeds were evenly placed on the soil surface, and then covered with 0.5 cm to 1 cm of soil according to the size of the seeds. The weeds are cultivated in a controlled sunlight greenhouse at 20° C. to 30° C., under natural light, and a relative humidity of 57% to 72%. The soil was loam, including 1.63% of organic matters, with a pH value of 7, 84.3 mg/kg of alkaline nitrogen, 38.5 mg/kg of available phosphorus, and 82.1 mg/kg of available potassium. Each treatment was repeated 2 times, each treatment included 12 pots, and 20 weed seeds were sown in each pot. Pesticide was applied in the test for 1 time in total. When the weeds grew to 1.5- to 2-leaf stage, thinning was conducted, with 10 weeds in each pot, and 30 weeds were kept in each treatment. The cultivated weeds were placed on trays with an area of 0.1 m^2, and stems and leaves were sprayed with a sprayer. After applying a pesticide, the pesticide applied weeds were moved into a greenhouse for routine cultivation. 2 weeks after sowing, the test plants were treated at the 2- to 3-leaf stage: the compounds of the present disclosure for testing were dissolved in acetone separately, and added with Tween 80, an emulsifiable oil of 1.5 liters/ha methyl oleate was added as a synergist, and an obtained mixture was diluted with certain water to a certain concentration solution. The solution was sprayed onto the plants using a spray tower. After spraying, the weeds were cultivated in the greenhouse for 3 weeks, and the experimental effects on the weeds were counted. The effective concentrations of the compounds were 10 g/mu, 5 g/mu, and 2.5 g/mu, the experiment was repeated three times, and an average result was taken.

“2-(4-chloro-2-fluoro-5-(2-oxo-2-(4-methyl)ethoxy)phenyl)-4,5,6,7-tetrahydro-1H-isoindole-1,3(2H)-dione [Compound C2]”: the “Post-emergence herbicidal activity, A. theophrasti (grade)” value with Abutilon theophrasti (dosage 2.5 g/mu), in the assay with Abutilon theophrasti (dosage 5 g/mu) and in the assay on Abutilon theophrasti (dosage 10 g/mu) was 5 (Grade 5: the growth control rate is greater than or equal to 85%) in each case. Also, the “Post-emergence herbicidal activity, A. retroflexus (grade)” value with Amaranthus retroflexus (dosage 2.5 g/mu), in the assay on Amaranthus retroflexus (dosage 5 g/mu) and in the assay on Amaranthus retroflexus (dosage 10 g/mu) was 5 (Grade 5: the growth control rate is greater than or equal to 85%) in each case. Further, the “Post-emergence herbicidal activity, E. crusgalli (grade)” value in the assay on Echinochloa crusgalli (dosage 2.5 g/mu) is 1 (Grade 1: the growth control rate is greater than or equal to 5% and less than 20%); with Echinochloa crusgalli (dosage 5 g/mu), 2 (Grade 2: the growth control rate is greater than or equal to 20% and less than 40%); with Echinochloa crusgalli (dosage 10 g/mu), 3 (Grade 3: the growth control rate is greater than or equal to 40% and less than 60%). In addition, the “Post-emergence herbicidal activity, P. oleracea (grade)” value in the assay on Portulaca oleracea (dosage 2.5 g/mu), with Portulaca oleracea (dosage 5 g/mu) and with Portulaca oleracea (dosage 10 g/mu) was 5 (Grade 5: the growth control rate is greater than or equal to 85%) throughout. The “Post-emergence herbicidal activity, S. viridis (grade)” value in the assay on Setaria viridis (dosage 2.5 g/mu) was 2 (Grade 2: the growth control rate is greater than or equal to 20% and less than 40%); in the assay on Setaria viridis (dosage 5 g/mu) it was 3 (Grade 3: the growth control rate is greater than or equal to 40% and less than 60%); in the assay on Setaria viridis (dosage 10 g/mu) it was 4 (Grade 4: the growth control rate is greater than or equal to 60% and less than 85%). For the same molecule, the “Post-emergence herbicidal activity, Trifoliumre pensL. (grade)” value in the assay with Trifoliumre pensL. (dosage 2.5 g/mu), in the assay with Trifoliumre pensL. (dosage 5 g/mu) and in the assay on Trifoliumre pensL. (dosage 10 g/mu) was 5 (Grade 5: the growth control rate is greater than or equal to 85%) each time.

With `Cc1ccc(-c2noc(COc3cc(N4C(=O)C5=C(CCCC5)C4=O)c(F)cc3Cl)n2)c(F)c1` [Compound A9], the “Post-emergence herbicidal activity, A. theophrasti (grade)” value with Abutilon theophrasti (dosage 2.5 g/mu), in the assay with Abutilon theophrasti (dosage 5 g/mu) and with Abutilon theophrasti (dosage 10 g/mu) was 5 (Grade 5: the growth control rate is greater than or equal to 85%) in each case. Also, the “Post-emergence herbicidal activity, A. retroflexus (grade)” value with Amaranthus retroflexus (dosage 2.5 g/mu), in the assay on Amaranthus retroflexus (dosage 5 g/mu) and in the assay with Amaranthus retroflexus (dosage 10 g/mu) was 5 (Grade 5: the growth control rate is greater than or equal to 85%) in each case. Moreover, the “Post-emergence herbicidal activity, E. crusgalli (grade)” value with Echinochloa crusgalli (dosage 2.5 g/mu) is 1 (Grade 1: the growth control rate is greater than or equal to 5% and less than 20%); with Echinochloa crusgalli (dosage 5 g/mu) it was 2 (Grade 2: the growth control rate is greater than or equal to 20% and less than 40%); in the assay on Echinochloa crusgalli (dosage 10 g/mu), 3 (Grade 3: the growth control rate is greater than or equal to 40% and less than 60%). Besides, the “Post-emergence herbicidal activity, P. oleracea (grade)” value with Portulaca oleracea (dosage 2.5 g/mu) is 4 (Grade 4: the growth control rate is greater than or equal to 60% and less than 85%); in the assay with Portulaca oleracea (dosage 5 g/mu), 5 (Grade 5: the growth control rate is greater than or equal to 85%); with Portulaca oleracea (dosage 10 g/mu), 5 (Grade 5: the growth control rate is greater than or equal to 85%). Further, the “Post-emergence herbicidal activity, S. viridis (grade)” value with Setaria viridis (dosage 2.5 g/mu) was 2 (Grade 2: the growth control rate is greater than or equal to 20% and less than 40%); in the assay on Setaria viridis (dosage 5 g/mu), 3 (Grade 3: the growth control rate is greater than or equal to 40% and less than 60%); with Setaria viridis (dosage 10 g/mu), 4 (Grade 4: the growth control rate is greater than or equal to 60% and less than 85%). Further, the “Post-emergence herbicidal activity, Trifoliumre pensL. (grade)” value with Trifoliumre pensL. (dosage 2.5 g/mu) is 4 (Grade 4: the growth control rate is greater than or equal to 60% and less than 85%); with Trifoliumre pensL. (dosage 5 g/mu), 5 (Grade 5: the growth control rate is greater than or equal to 85%); in the assay on Trifoliumre pensL. (dosage 10 g/mu), 5 (Grade 5: the growth control rate is greater than or equal to 85%).
